Series [1] can be described thus: Laboratory assessments (lipid profile) pre- and post-treatment in obese patients. The format is in vivo, human. Conditions: RFX vs. PBO, p<0.04; 550 mg twice daily for 20 days. The text has this:
(§1) Patients were followed for up to six months. The primary endpoint was weight loss at the end of the study. Laboratory assessments including a basic metabolic panel, liver enzymes, lipid profile, and HbA1c (glucose testing) were obtained pre- and post-treatment.
(§2) Baseline demographic characteristics included median age of 45 (range 18-62) years, gender (73% female) average starting weight of 238.5±77.1 lbs and BMI of 38.8±9.7. Common co-morbidities included GERD (37%), hypertension (32%), diabetes (19%), and lipid disorders (14%). […] Weight loss in the rifaximin group was statistically significant (P<0.03) when compared to baseline weight. Diabetics tended to lose more weight (−6.1 lbs), and patients with underlying lipid disorders lost the least (−0.7 lbs).

Series [2] in a line: Pilot randomized placebo-controlled study of weight loss in obese patients (BMI>30). It counts as in vivo, human.
From the text: as §1, §2

The subject of series [3] is species of Staphylococcus, Streptococcus, Enterococcus, and Enterobacteriaceae. Conditions: in vitro data; cited from earlier work.

Structures are written as SMILES.

As to `COC1/C=C/OC2(C)Oc3c(C)c(O)c4c(O)c(c5c(nc6cc(C)ccn65)c4c3C2=O)NC(=O)/C(C)=C\C=C\C(C)C(O)C(C)C(O)C(C)C(OC(C)=O)C1C` (stereo not shown) [RFX], in series [1], the “Triglycerides difference pre- to post-treatment” value is given as “+15.9”. The compound further had a mean weight lost in series [2] (first study visit following treatment, 550 mg twice daily for 20 days, patients with BMI>30) of 1.1 lbs. In addition, in series [2] (mean follow-up of 4.9 months, 550 mg twice daily for 20 days, P<0.03 compared to baseline weight), the “mean weight lost at the end of the study” value was determined as 4.5 lbs. In series [2] (obese patients (BMI>30), pilot study), the “weight loss as compared to placebo patients” value is reported as “greater weight loss”. The “weight change in diabetics” value in series [2] (subgroup: diabetics, 550 mg twice daily for 20 days) is −6.1 lbs. Also, the “weight change in patients with underlying lipid disorders” value in series [2] (subgroup: underlying lipid disorders, 550 mg twice daily for 20 days) is recorded as −0.7 lbs. Moreover, the “antibacterial activity in vitro” value in series [3] is reported as “active”.

The record behind these values is US20150164866A1, “METHODS OF ADMINISTERING RIFAXIMIN FOR WEIGHT LOSS AND TREATMENT OF OBESITY” (Salix Pharmaceuticals, Ltd, priority 2012, published 2015).
